Assay results published in US8815833B2, “Stable amifostine liquid concentrate” (Seidose, LLC, priority 2006, dated 2014).
Converted amounts (≈) assume the structure as drawn. Like-named read-outs stand apart in the source and are kept apart here.

Tests used:
[1] = Approximate concentration of ionic species as function of pH according to the pKa values; format: physicochemical
Text: There are four pKas for amifostine. The Merck Index lists them to be <2.0, 4.2, 9.0 and 11.7. The amino groups (2) and the phosphate group (2 pKa per group) can all be completely protonated. [Ref: Structure of Radio protective agent S-2(3-Aminoprpropylamino)ethylphosphorthioic acid (WR 2721) Jean Karle, Acta Cryst (1988) C44 135-138]. The usual form crystallized from solution is a double zwitterion with the phosphate completely dissociated (−2) and the amino groups fully protonated (+2). It is usually drawn with the amines in their free base form and the phosphate completely protonated but that is not how it exists in solution. So, the two pKa values from the double zwitterion are for the two amino functions ionizing (i.e., pKas 3 & 4). The first two pKas are for the phosphate which are perturbed by the two positive charges on the amino groups which pushes them lower than pKa1 and pKa2 for phosphoric acid. The following table describes the ionic nature of the compound as function of pH according to the pKa values reported in the Merck Index. The table also summarizes the approximate concentration of ionic species as function of pH:
(§1) At pH 9.0, 50% of the amifostine is present as the double zwitterion and 50% of amine 1 (primary amine) is present as the free base form making 50% of the amifostine have a net negative charge. At pH 10.0, only 10% of amifostine is present as a double zwitterion and the other 90% has a net negative charge; amine 1 is mainly in the free base form. […] Approximately 1% is present as the double zwitterion. More importantly, 17% of amifostine has both amines in the un-ionized form as free bases and this particular ionic species of the molecule carries about −2 charge. At this pH (11), it is observed that there is a significant improvement in the stability. […] At pH 13, over 95% of the amifostine is present with both amines in their free base forms with improved stability.

[2] = physchem; format: physicochemical; conditions: for crystallization of solution: 200 mg/ml solution
Description: Amifostine is a phospho ester compound that is used pharmacologically for the amelioration of side effects of radiation and chemotherapy. The compound is currently marketed as a lyophilizate of a crystalline trihydrate of amifostine, typically in vials of 500 mg, which is reconstituted to a final administration concentration of 5 to 40 mg/ml for IV infusion. […] Amifostine is known to undergo hydrolysis in aqueous solution at acidic, neutral, and mild basic conditions. Thus, it was believed that stable aqueous formulations that would not hydrolyze to any appreciable extent over typical storage time periods were not likely to be found. […] Thus, aqueous liquid concentrates of amifostine were simply thought not possible. Because such an aqueous liquid amifostine concentrate would eliminate a potential source of dosing errors in clinical practice, there is clearly a need for the same.
as §1

[3] = Hydrolysis of amifostine to free thiol metabolite as function of pH (stability evaluations); format: physicochemical
Text: At pH 7.4, the intrinsic pH, amifostine has a net neutral charge as a double zwitterion with the phosphate completely dissociated (−2) and the amino groups fully protonated (+2). During stability evaluations carried out for the purposes of the present invention it was observed that the hydrolysis of amifostine to release free thiol metabolite is rapid at acidic pH and even at weakly acidic pH. On the other hand, the hydrolysis was almost 100-fold slower at pH 10 and above.

[4] = Merck Index, cited from earlier work

## NCCCNCCSP(=O)(O)O [amifostine, S-2(3-Aminoprpropylamino)ethylphosphorthioic acid]
[1]; pH 7
  Prim. amine (pKa 9.0) Protonated: ~100%
  Prim. amine (pKa 9.0) Unprotonated: ~0%
  Sec. amine (pKa 11.7) Protonated: ~100%
  Sec. amine (pKa 11.7) Unprotonated: ~0%
[1]; pH 9
  Prim. amine (pKa 9.0) Protonated: ~50%
  Prim. amine (pKa 9.0) Unprotonated: ~50%
  Sec. amine (pKa 11.7) Protonated: ~100%
  Sec. amine (pKa 11.7) Unprotonated: ~0%
[1]; pH 9.0
  amine 1 present as free base form, net negative charge: 50%
  present as the double zwitterion: 50%
[1]; pH 10
  Prim. amine (pKa 9.0) Protonated: ~10%
  Prim. amine (pKa 9.0) Unprotonated: ~90%
  Sec. amine (pKa 11.7) Protonated: ~100%
  Sec. amine (pKa 11.7) Unprotonated: ~0%
[1]; pH 10.0
  has a net negative charge (amine 1 free base): 90%
  present as a double zwitterion: 10%
[1]; pH 11
  Prim. amine (pKa 9.0) Protonated: ~1%
  Prim. amine (pKa 9.0) Unprotonated: ~99%
  Sec. amine (pKa 11.7) Protonated: ~83%
  Sec. amine (pKa 11.7) Unprotonated: ~17%
[1]; pH 11.5 solution
  both amines in the un-ionized form as free bases (about -2 charge): 17%
  present as the double zwitterion: Approximately 1%
[1]; pH 12
  Prim. amine (pKa 9.0) Protonated: ~0.1%
  Prim. amine (pKa 9.0) Unprotonated: >99.9%
  Sec. amine (pKa 11.7) Protonated: ~33%
  Sec. amine (pKa 11.7) Unprotonated: ~67%
[1]; pH 13
  Prim. amine (pKa 9.0) Protonated: ~0.01%
  Prim. amine (pKa 9.0) Unprotonated: 99.99%^
  Sec. amine (pKa 11.7) Protonated: <5%
  Sec. amine (pKa 11.7) Unprotonated: >95%
  present with both amines in their free base forms: over 95%
[2]; below pH 10, refrigeration conditions
  crystallization of solution: crystallizes out
[2]; pH 10.0, refrigeration conditions
  crystallization of solution: remained clear with no crystallization observed
[2]; 5 °C, pH 10, water
  solubility: ~100 mg/mL (≈ 467 mM)
[3]; acidic pH and even weakly acidic pH
  hydrolysis to release free thiol metabolite: rapid
[3]; pH 10 and above
  hydrolysis slower than at acidic / weakly acidic pH: ~100 fold
[4]; first pKa (phosphate)
  pKa: < 2.0
[4]; fourth pKa (sec. amine, amine 2)
  pKa: 11.7
[4]; second pKa (phosphate)
  pKa: 4.2
[4]; third pKa (prim. amine, amine 1)
  pKa: 9.0
